# Test results from patent publication USRE37556E1, “Superoxide radical inhibitor” (Otsuka Pharmaceutical Co., Ltd., priority 1990, dated 2002).
# Tested on: human neutrophilic leukocytes
# Assay: Inhibition of superoxide radical (O2-) generation in FMLP-stimulated human neutrophilic leukocytes (ferricytochrome C method)
# Assay type: cell-based
# Settings: Homo sapiens, Leukocyte, Table 16; comparative test present compounds vs prior art compounds; NE = not effective
# How it was run: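 Neutrophils were isolated from healthy adult blood by dextran-hypotonic treatment and Ficoll-Paque gradient. Compounds in DMSO were pre-incubated with the cells at 37° C before FMLP stimulation. O2− generation was measured by ferricytochrome C reduction.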
row,IC50 [nM],Compound
1,10,"CCOc1ccc(-c2nc(-c3ccc(O)c(C(=O)O)c3)cs2)cc1OCC [compound 62, 4-(3-Carboxy-4-hydroxyphenyl)-2-(3,4-diethoxy-phenyl)thiazole]"

# Same assay, conditions: Homo sapiens, Leukocyte, pH 7.4, Table 15; O2- generation, 3x10^-7 M FMLP, cytochalasin B, 37° C., pH 7.4
row,IC50 [nM],Compound
1,10,"CCOc1ccc(-c2nc(-c3ccc(O)c(C(=O)O)c3)cs2)cc1OCC [compound 62, 4-(3-Carboxy-4-hydroxyphenyl)-2-(3,4-diethoxy-phenyl)thiazole]"

# Tested on: heart muscle
# Assay: Inhibition of heart muscle necrosis in rat caused by clogging of the coronary artery and subsequent blood reperfusion (tissue CPK)
# Assay type: in vivo
# Settings: male SD rats; 6 mg/kg intravenously 5 minutes before ligature; ischemic area 2 hours after reperfusion; p < 0.05 vs control
# Method: 1 (4) Activity for inhibiting the heart muscle necrosis in rat caused by clogging of the coronary artery and subsequent blood reperfusion
# Male rats of SD strain (7-10 week old, 250-350 g) were used in this test. The activity of creatine phosphokinase (CPK) in tissue was used as an indication of heart muscle necrosis.
# A test compound was dissolved in a small amount of 1N aqueous NaOH solution, then diluted with a physiological saline solution, and administered at a dose of 1 ml/kg of body weight. Each rat was anesthetized with pentobarbital and thoracotomized under artifical respiration; the descending branch before left coronary artery was ligated with a piece of silk string for 12 minutes; then, the blood was reperfused. Thereafter, the thoracotomized chest was closed and the rat was waken from anesthesia. 2 hours after reperfusion, the heart was enucleated under anesthesia; only the ischemic area was homogenized; and the activity of CPK contained therein was measured. The test compound was intravenously administered at a dose of 6 mg/kg 5 mintues before ligature of the coronary artery.
# The results on the NaOH/physiological saline solution-administered group as a control and the compound-administered group are shown in Table 19.
row,Compound,"Activity of creatine phosphokinase in tissue, Mean ± S.E."
1,"CCOc1ccc(-c2nc(-c3ccc(O)c(C(=O)O)c3)cs2)cc1OCC [compound 62, 4-(3-Carboxy-4-hydroxyphenyl)-2-(3,4-diethoxy-phenyl)thiazole]",19.53 ± 1.56 U/mg of protein

# Tested on: not given
# Assay: not given
# Settings: not given
row,melting point [°C],Compound
1,113 to 114,"CCOc1ccc(-c2nc(-c3cc(CCO)c(O)c(C(=O)OC)c3)cs2)cc1OCC [Example 358, 2-(3,4-diethoxyphenyl)-4-[3-methoxycarbonyl-4-hydroxy-5-(2-hydroxyethyl)phenyl]-thiazole]"
2,228 to 229,"CCOc1ccc(-c2nc(-c3ccc(N)c(C(=O)O)c3)cs2)cc1OCC [Example 359, 2-(3,4-diethoxyphenyl)-4-(3-carboxy-4-aminophenyl)thiazole]"
3,192 to 192.8,"CCOc1ccc(-c2nc(-c3cccc(C(=O)O)c3)cs2)cc1OCC [Example 362, 2-(3,4-diethoxyphenyl)-4-(3-carboxyphenyl)thiazole]"
4,179 to 180,"CCCc1cc(-c2csc(-c3ccc(OCC)c(OCC)c3)n2)cc(C(=O)O)c1O [Example 363, 2-(3,4-diethoxyphenyl)-4-(3-carboxy-4-hydroxy-5-propylphenyl)thiazole]"
5,178 to 179,"CCOc1ccc(-c2nc(-c3ccc(OC(C)=O)c(C(=O)O)c3)cs2)cc1OCC [Example 364, 2-(3,4-diethoxyphenyl)-4-(3-carboxy-4-acetyloxyphenyl)thiazole]"
6,112 to 113,"CCOc1ccc(-c2nc(-c3ccc(OS(=O)(=O)C(F)(F)F)c(C(=O)OC)c3)cs2)cc1OCC [Example 457, 2-(3,4-diethoxyphenyl)-4-(3-methoxycarbonyl-4-trifluoromethanesulfonyloxyphenyl) thiazole]"
7,67 to 68,"CCCCCCCCCOC(=O)c1cc(-c2csc(-c3ccc(OCC)c(OCC)c3)n2)ccc1O [Example 461, 2-(3,4-diethoxyphenyl)-4-(3-nonyloxycarbonyl-4-hydroxyphenyl)thiazole]"

# Further lines, the molecule ahead of its results:
row,Compound,melting point [°C]
1,"CCOc1ccc(-c2nc(-c3ccc(S)cc3C(=O)O)cs2)cc1OCC [Example 355, 2-(3,4-diethoxyphenyl)-4-(4-mercapto-2-carboxyphenyl)-thiazole]",283 to 285
2,"CCOc1ccc(-c2nc(-c3cc(C(=O)O)c(O)cc3O)cs2)cc1OCC [Example 360, 2-(3,4-diethoxyphenyl)-4-(3-carboxy-4,6-dihydroxyphenyl)thiazole]",233 to 234
3,"CCOc1ccc(-c2nc(-c3cccc(CO)n3)cs2)cc1OCC [Example 454, 2-(3,4-diethoxyphenyl)-4-(2-hydroxymethyl-6-pyridyl)thiazole]",109 to 113
4,"CCOc1ccc(-c2nc(Cn3cccc3C(C)=O)cs2)cc1OCC [Example 459, 2-(3,4-diethoxyphenyl)-4-(2-acetyl-1-pyrrolyl)methylthiazole]",123 to 124
5,"CCOc1ccc(-c2nc(-c3cc4c(c(C(=O)O)c3)OC(C)(C)C4)cs2)cc1OCC [Example 465, 2-(3,4-diethoxyphenyl)-4-(2,2-dimethyl-7-carboxy-2,3-dihydrobenzofuran-5-yl)thiazole]",106 to 107
6,"CCOC(=O)C=Cc1cc(-c2csc(-c3ccc(OCC)c(OCC)c3)n2)cc(C(=O)OCOC)c1OCOC [Example 512, 2-(3,4-diethoxyphenyl)-4-[3-methoxymethoxycarbonyl-4-methoxymethoxy-5-(2-ethoxycarbonylvinyl)phenyl]thiazole]",94 to 96
7,"CCOc1ccc(-c2nc(-c3cc(C=CC(=O)O)c(O)c(C(=O)O)c3)cs2)cc1OCC [Example 514, 2-(3,4-diethoxyphenyl)-4-[3-carboxy-4-hydroxy-5-(2-carboxyvinyl)phenyl] thiazole]",260 to 261
8,"CCOc1ccc(-c2nc(-c3cc(C(=O)O)ccn3)cs2)cc1OCC [Example 516, 2(3,4-diethoxyphenyl)-4-(4-carboxy-2-pyridyl)thiazole]",236.2 to 237.2
